# In patent US20260285850A1, “SUBSTITUTED OXAZOLIDINONES AND IMIDAZOLINONES AS HERBICIDES” (FMC CORPORATION, priority 2023, published 2026):
# What was measured:
# Type in all cases: in vivo
# [1] = tested on: rice (Oryza sativa); test: Test B flooded paddy test, visual plant response rating 0-100; conditions: 250 g ai/ha, Flood, applied to paddy water, evaluated after 13 days
# Summary of the method: (§1)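 Compounds applied to standing paddy water (3 cm above soil, maintained for the test duration) on 2-leaf-stage plants; visual rating vs controls at 13 days, greenhouse.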
# [2] = tested on: sedge, umbrella (small-flower umbrella sedge, Cyperus difformis); test: as above; conditions: 250 g ai/ha, Flood, applied to paddy water, evaluated after 13 days
# Summary of the method: as §1
# [3] = tested on: barnyardgrass (Echinochloa crusgalli); test: as above; conditions: 250 g ai/ha, Flood, applied to paddy water, evaluated after 13 days
# Summary of the method: as §1
# [4] = tested on: ducksalad (Heteranthera limosa); test: as above; conditions: 250 g ai/ha, Flood, applied to paddy water, evaluated after 13 days
# Summary of the method: as §1
# [5] = tested on: barnyardgrass (Echinochloa crus-galli); test: Test A preemergence soil spray, visual injury rating 0-100; conditions: 10 days
# Summary of the method: (§2)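 Compound in a non-phytotoxic, surfactant-containing solvent is applied either as a directed soil spray before seedlings emerge or onto emerged plants 2-10 cm tall; pots hold a loam-sand blend. Plants grow 10 days under greenhouse conditions and are rated by eye against untreated controls (0 no effect, 100 complete control).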
# [6] = tested on: kochia (Bassia scoparia); test: as above; conditions: 62 g ai/ha, 10 days, 0 = no effect, 100 = complete control
# Summary of the method: as §2
# [7] = tested on: ryegrass, Italian (italian ryegrass, Lolium multiflorum); test: as above; conditions: 10 days
# Summary of the method: as §2
# [8] = tested on: soybean (Glycine max); test: as above; conditions: 10 days
# Summary of the method: as §2
# [9] = tested on: wheat (Triticum aestivum); test: as above; conditions: 10 days
# Summary of the method: as §2
# [10] = tested on: blackgrass (Alopecurus myosuroides); test: as above; conditions: 10 days
# Summary of the method: as §2
# [11] = tested on: palmer (palmer amaranth, palmer pigweed, Amaranthus palmeri); test: as above; conditions: 10 days
# Summary of the method: as §2
# [12] = tested on: green foxtail (Setaria viridis); test: as above; conditions: 10 days
# Summary of the method: as §2
# [13] = tested on: oat, wild (wild oat, Avena fatua); test: as above; conditions: 10 days
# Summary of the method: as §2
# [14] = tested on: ragweed (common ragweed, Ambrosia artemisiifolia); test: as above; conditions: 10 days
# Summary of the method: as §2
# [15] = tested on: corn (Zea mays); test: as above; conditions: 10 days
# Summary of the method: as §2
# [16] = tested on: barnyardgrass (Echinochloa crus-galli); test: Test A postemergence application, visual injury rating 0-100
# Summary of the method: as §2
# [17] = tested on: kochia (Bassia scoparia); test: as above
# Summary of the method: as §2
# [18] = tested on: ryegrass, Italian (italian ryegrass, Lolium multiflorum); test: as above
# Summary of the method: as §2
# [19] = tested on: horseweed (Erigeron canadensis); test: as above
# Summary of the method: as §2
# [20] = tested on: soybean (Glycine max); test: as above
# Summary of the method: as §2
# [21] = tested on: wheat (Triticum aestivum); test: as above
# Summary of the method: as §2
# [22] = tested on: blackgrass (Alopecurus myosuroides); test: as above
# Summary of the method: as §2
# [23] = tested on: palmer (palmer amaranth, palmer pigweed, Amaranthus palmeri); test: as above
# Summary of the method: as §2
# [24] = tested on: green foxtail (Setaria viridis); test: as above
# Summary of the method: as §2
# [25] = tested on: oat, wild (wild oat, Avena fatua); test: as above
# Summary of the method: as §2
# [26] = tested on: ragweed (common ragweed, Ambrosia artemisiifolia); test: as above
# Summary of the method: as §2
# [27] = tested on: galium (catchweed bedstraw, Galium aparine); test: as above
# Summary of the method: as §2
# [28] = tested on: corn (Zea mays); test: as above
# Summary of the method: as §2
# [29] = 62 g ai/ha, 0 = no effect, 100 = complete control
# [30] = 62 g ai/ha, postemergence, 10 days, 0 = no effect, 100 = complete control
# [31] = Postemergence, 16 g ai/ha, greenhouse 10 days, 0 no effect, 100 complete control
smiles,measurement,setting,value
COC(=O)C1C=CC(NC(=O)C2(C)CN(c3cc(C)cc(C)c3)C(=O)O2)C1 (stereo not drawn) [Compound 115],"Plant response rating, Rice (0 to 100 scale, 0 is no effect and 100 is complete control)",[1],25
same,"Plant response rating, Sedge, Umbrella (0 to 100 scale, 0 is no effect and 100 is complete control)",[2],0
same,"Plant response rating, Barnyardgrass (0 to 100 scale, 0 is no effect and 100 is complete control)",[3],65
same,"Plant response rating, Ducksalad (0 to 100 scale, 0 is no effect and 100 is complete control)",[4],80
same,Barnyardgrass plant response rating,"[5]; 16 g ai/ha, 0 to 100 scale",30
same,Barnyardgrass plant response rating (0-100),[5]; [29],100
same,Kochia plant response rating (0-100),[6],100
same,"Ryegrass, Italian plant response rating","[7]; 16 g ai/ha, 0 to 100 scale",10
same,"Ryegrass, Italian plant response rating (0-100)",[7]; [29],30
same,Soybean plant response rating,"[8]; 16 g ai/ha, 0 to 100 scale",0
same,Soybean plant response rating (0-100),[8]; [29],0
same,Wheat plant response rating,"[9]; 16 g ai/ha, 0 to 100 scale",0
same,Wheat plant response rating (0-100),[9]; [29],30
same,Blackgrass plant response rating,"[10]; 16 g ai/ha, 0 to 100 scale",20
same,Blackgrass plant response rating (0-100),[10]; [29],60
same,"Pigweed, Palmer plant response rating","[11]; 16 g ai/ha, 0 to 100 scale",20
same,"Pigweed, Palmer plant response rating (0-100)",[11]; [29],90
same,"Foxtail, Green plant response rating","[12]; 16 g ai/ha, 0 to 100 scale",0
same,"Foxtail, Green plant response rating (0-100)",[12]; [29],30
same,"Oat, Wild plant response rating","[13]; 16 g ai/ha, 0 to 100 scale",0
same,"Oat, Wild plant response rating (0-100)",[13]; [29],40
same,Ragweed plant response rating,"[14]; 16 g ai/ha, 0 to 100 scale",0
same,Ragweed plant response rating (0-100),[14]; [29],0
same,Corn plant response rating,"[15]; 16 g ai/ha, 0 to 100 scale",0
same,Corn plant response rating (0-100),[15]; [29],20
same,Barnyardgrass plant response rating (0-100),[16]; [30],100
same,Barnyardgrass plant response rating (0 to 100 scale),[16]; [31],70
same,Kochia plant response rating (0-100),[17]; [30],70
same,Kochia plant response rating (0 to 100 scale),[17]; [31],0
same,"Ryegrass, Italian plant response rating (0-100)",[18]; [30],70
same,"Ryegrass, Italian plant response rating (0 to 100 scale)",[18]; [31],40
same,Horseweed plant response rating (0-100),[19]; [30],0
same,Horseweed plant response rating (0 to 100 scale),[19]; [31],10
same,Soybean plant response rating (0-100),[20]; [30],60
same,Soybean plant response rating (0 to 100 scale),[20]; [31],40
same,Wheat plant response rating (0-100),[21]; [30],80
same,Wheat plant response rating (0 to 100 scale),[21]; [31],30
same,Blackgrass plant response rating (0-100),[22]; [30],90
same,Blackgrass plant response rating (0 to 100 scale),[22]; [31],70
same,"Pigweed, Palmer plant response rating (0-100)",[23]; [30],10
same,"Pigweed, Palmer plant response rating (0 to 100 scale)",[23]; [31],10
same,"Foxtail, Green plant response rating (0-100)",[24]; [30],30
same,"Foxtail, Green plant response rating (0 to 100 scale)",[24]; [31],10
same,"Oat, Wild plant response rating (0-100)",[25]; [30],90
same,"Oat, Wild plant response rating (0 to 100 scale)",[25]; [31],80
same,Ragweed plant response rating (0-100),[26]; [30],30
same,Ragweed plant response rating (0 to 100 scale),[26]; [31],0
same,Galium plant response rating (0-100),[27]; [30],70
same,Galium plant response rating (0 to 100 scale),[27]; [31],60
same,Corn plant response rating (0-100),[28]; [30],100
same,Corn plant response rating (0 to 100 scale),[28]; [31],60
